Each structure is given as a SMILES string.

Experimental findings from patent US8017612B2, “Piperazine compound and use thereof as a HCV polymerase inhibitor” (priority 2006, dated 2011) are described below.

For assay [1], the target named is T1, HCV polymerase (NS5B) type 1b (Hepatitis C virus genotype 1b, UniProt P26663).
T1 construct: a region encoding NS5B (J Virol 1991 March, 65(3), 1105-13, 544 amino acids after deletion of 47 amino acids on the C-terminal); 6xHis (C); made in house; host or cells: Escherichia coli
In words: Assay of enzyme (HCV polymerase) inhibitory activity, type 1b enzyme. As to conditions: HCV polymerase inhibitory activity IC50, 1b, type 1b enzyme. Type of assay: biochemical, HCV BK strain (type 1b). The method, boiled down:
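Polymerase activity was followed as radiolabelled UTP incorporation by E. coli-expressed, His-tagged NS5B of HCV type 1b lacking its last 47 residues. Conditions: 2 μM UTP, 50 μM other NTPs, Mg2+ buffer at pH 7.5, 25 °C for 60 min. Inhibition relative to compound-free reactions gave IC50.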

In assay [2] the target is T2, HCV polymerase (NS5B) type 1a (Hepatitis C virus genotype 1a, UniProt P26664).
T2 construct: made in house; host or cells: Escherichia coli (by the 'similar method' of the 1b enzyme)
In words: Assay of enzyme (HCV polymerase) inhibitory activity, type 1a enzyme. The assay is classed as biochemical, HCV type 1a (cloned from the blood of patients). Particulars: HCV polymerase inhibitory activity IC50, 1a, type 1a enzyme. The method in brief:
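IC50 values derive from radioactivity of newly synthesized RNA with versus without test compound. The enzyme was C-terminally truncated type 1a NS5B, 1.5 μg/ml, run 60 min at 25° C with 3H-UTP-labelled nucleotides.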

As for `CCCc1ccc(CNC(=O)[C@H]2CN(c3nc4cn[nH]c(=O)c4s3)CCN2S(=O)(=O)c2ccc(C(F)(F)F)cc2)cc1` [Example 820, (R)-4-(7-oxo-6,7-dihydro-thiazolo[4,5-d]pyridazin-2-yl)-1-(4-trifluoromethyl-benzenesulfonyl)-piperazine-2-carboxylic acid 4-propyl-benzylamide], the IC50 in assay [1] and in assay [2] was < 100 nM throughout.

On to `CCC(F)(F)c1ccc(CNC(=O)[C@H]2CN(c3nc4cn[nH]c(=O)c4s3)CCN2S(=O)(=O)c2ccc(OC(F)(F)F)cc2)cc1` [Example 821, (R)-4-(7-oxo-6,7-dihydro-thiazolo[4,5-d]pyridazin-2-yl)-1-(4-trifluoromethoxy-benzenesulfonyl)-piperazine-2-carboxylic acid 4-(1,1-difluoro-propyl)-benzylamide], for which the IC50 in assay [1] and in assay [2] was < 100 nM each time.

Consider `CCCc1ccc(CNC(=O)[C@H]2CN(c3ccc(C(=O)O)c(C)n3)CCN2S(=O)(=O)c2ccc(OC(F)(F)F)cc2)cc1` [Example 822, 2-methyl-6-[(R)-3-(4-propyl-benzylcarbamoyl)-4-(4-trifluoromethoxy-benzenesulfonyl)-piperazin-1-yl]-nicotinic acid], for which the IC50 in assay [1] and in assay [2] was < 100 nM in each case.

For the compound `CCCc1ccc(CNC(=O)[C@H]2CN(c3nc(C)c(C(=O)O)cc3F)CCN2S(=O)(=O)c2ccc(OC(F)(F)F)cc2)cc1` [Example 823, 5-fluoro-2-methyl-6-[(R)-3-(4-propyl-benzylcarbamoyl)-4-(4-trifluoromethoxy-benzenesulfonyl)-piperazin-1-yl]-nicotinic acid], the IC50 in assay [1] and in assay [2] was 100 to 1000 nM each time.

For the compound `CCCc1ccc(CNC(=O)[C@H]2CN(c3cnc4cncc(C(=O)O)c4n3)CCN2S(=O)(=O)c2ccc(OC(F)(F)F)cc2)cc1` [Example 824, 2-[(R)-3-(4-propyl-benzylcarbamoyl)-4-(4-trifluoromethoxy-benzenesulfonyl)-piperazin-1-yl]-pyrido[3,4-b]pyrazine-8-carboxylic acid], the IC50 in assay [1] and in assay [2] was < 100 nM throughout.

`CCCc1ccc(CNC(=O)[C@H]2CN(c3nc4cn[nH]c(=O)c4s3)CCN2S(=O)(=O)c2ccc([N+](=O)[O-])cc2)cc1` [Example 825, (R)-1-(4-nitro-benzenesulfonyl)-4-(7-oxo-6,7-dihydro-thiazolo[4,5-d]pyridazin-2-yl)-piperazine-2-carboxylic acid 4-propyl-benzylamide]: the IC50 in assay [1] and in assay [2] was < 100 nM each time.

Regarding `CCCc1ccc(CNC(=O)[C@H]2CN(c3nc(C)c(CCC(=O)O)s3)CCN2S(=O)(=O)c2ccc(OC(F)(F)F)cc2)cc1` [Example 826, 3-{4-methyl-2-[(R)-3-(4-propyl-benzylcarbamoyl)-4-(4-trifluoromethoxy-benzenesulfonyl)-piperazin-1-yl]-thiazol-5-yl}-propionic acid], the IC50 in assay [1] and in assay [2] was < 100 nM throughout.

In the case of `CCCc1ccc(CNC(=O)[C@H]2CN(c3nc(C)c(S(N)(=O)=O)s3)CCN2S(=O)(=O)c2ccc(OC(F)(F)F)cc2)cc1` [Example 827, (R)-4-(4-methyl-5-sulfamoyl-thiazol-2-yl)-1-(4-trifluoromethoxy-benzenesulfonyl)-piperazine-2-carboxylic acid 4-propyl-benzylamide], the IC50 in assay [1] and in assay [2] was < 100 nM each time.

As to `CCCc1ccc(CNC(=O)[C@H]2CN(c3nc(C)c(S(=O)(=O)NC)s3)CCN2S(=O)(=O)c2ccc(OC(F)(F)F)cc2)cc1` [Example 828, (R)-4-(4-methyl-5-methylsulfamoyl-thiazol-2-yl)-1-(4-trifluoromethoxy-benzenesulfonyl)-piperazine-2-carboxylic acid 4-propyl-benzylamide], the IC50 in assay [1] and in assay [2] was < 100 nM throughout.

On to `CCCc1ccc(CNC(=O)[C@H]2CN(c3nc(C)c(S(=O)(=O)N(C)C)s3)CCN2S(=O)(=O)c2ccc(OC(F)(F)F)cc2)cc1` [Example 829, (R)-4-(5-dimethylsulfamoyl-4-methyl-thiazol-2-yl)-1-(4-trifluoromethoxy-benzenesulfonyl)-piperazine-2-carboxylic acid 4-propyl-benzylamide], for which the IC50 (in general, the concentration that gives 50% inhibition) is < 100 nM in assay [1] and 100 to 1000 nM in assay [2].

`CCCc1ccc(CNC(=O)[C@H]2CN(C(=O)Nc3ccccc3)CCN2S(=O)(=O)c2ccc(OC(F)(F)F)cc2)cc1` [Example 830, (R)-4-(4-trifluoromethoxy-benzenesulfonyl)-piperazine-1,3-dicarboxylic acid 1-phenylamide 3-(4-propyl-benzylamide)]: the IC50 in assay [1] was < 100 nM; in assay [2], 100 to 1000 nM.

As for `CCCc1ccc(CNC(=O)[C@H]2CN(C(=O)Nc3ccccc3C(=O)OC)CCN2S(=O)(=O)c2ccc(OC(F)(F)F)cc2)cc1` [Example 831, 2-{[(R)-3-(4-propyl-benzylcarbamoyl)-4-(4-trifluoromethoxy-benzenesulfonyl)-piperazine-1-carbonyl]-amino}-benzoic acid methyl ester], the IC50 in assay [1] and in assay [2] was > 1000 nM each time.

For `CCCc1ccc(CNC(=O)[C@H]2CN(c3nc(C)c(S(=O)(=O)NC(C)=O)s3)CCN2S(=O)(=O)c2ccc(OC(F)(F)F)cc2)cc1` [Example 832, (R)-4-(5-acetylsulfamoyl-4-methyl-thiazol-2-yl)-1-(4-trifluoromethoxy-benzenesulfonyl)-piperazine-2-carboxylic acid 4-propyl-benzylamide], the IC50 in assay [1] and in assay [2] was < 100 nM in each case.

Take `CCCc1ccc(CNC(=O)[C@H]2CN(C(=O)Nc3ccccc3OCc3ccccc3)CCN2S(=O)(=O)c2ccc(OC(F)(F)F)cc2)cc1` [Example 833, (R)-4-(4-trifluoromethoxy-benzenesulfonyl)-piperazine-1,3-dicarboxylic acid 1-[(2-benzyloxy-phenyl)-amide] 3-(4-propyl-benzylamide)]: the IC50 in assay [1] and in assay [2] was > 1000 nM throughout.

`CCCc1ccc(CNC(=O)[C@H]2CN(C(=O)Nc3ccccc3O)CCN2S(=O)(=O)c2ccc(OC(F)(F)F)cc2)cc1` [Example 834, (R)-4-(4-trifluoromethoxy-benzenesulfonyl)-piperazine-1,3-dicarboxylic acid 1-[(2-hydroxy-phenyl)-amide] 3-(4-propyl-benzylamide)]: the IC50 in assay [1] and in assay [2] was 100 to 1000 nM each time.

As to `O=C(NCc1ccc(OC(F)(F)F)cc1)[C@H]1CN(c2nc3cn[nH]c(=O)c3s2)CCN1S(=O)(=O)c1ccc([N+](=O)[O-])cc1` [Example 835, (R)-1-(4-nitro-benzenesulfonyl)-4-(7-oxo-6,7-dihydro-thiazolo[4,5-d]pyridazin-2-yl)-piperazine-2-carboxylic acid 4-trifluoromethoxy-benzylamide], the half-maximal inhibitory concentration (IC50) in assay [1] and in assay [2] was < 100 nM in each case.

As for `CCC(F)(F)c1ccc(CNC(=O)[C@H]2CN(c3cnc4cncc(C(=O)O)c4n3)CCN2S(=O)(=O)c2ccc(OC(F)(F)F)cc2)cc1` [Example 836, 2-[(R)-3-[4-(1,1-difluoro-propyl)-benzylcarbamoyl]-4-(4-trifluoromethoxy-benzenesulfonyl)-piperazin-1-yl]-pyrido[3,4-b]pyrazine-8-carboxylic acid], the IC50 in assay [1] and in assay [2] was < 100 nM each time.

For `CCCc1ccc(CNC(=O)[C@H]2CN(C(=O)Nc3ccccc3C(=O)OCc3ccccc3)CCN2S(=O)(=O)c2ccc(OC(F)(F)F)cc2)cc1` [Example 837, 2-{[(R)-3-(4-propyl-benzylcarbamoyl)-4-(4-trifluoromethoxy-benzenesulfonyl)-piperazine-1-carbonyl]-amino}-benzoic acid benzyl ester], the IC50 in assay [1] and in assay [2] was > 1000 nM throughout.

`CCCc1ccc(CNC(=O)[C@H]2CN(C(=O)Nc3ccccc3C(=O)O)CCN2S(=O)(=O)c2ccc(OC(F)(F)F)cc2)cc1` [Example 838, 2-{[(R)-3-(4-propyl-benzylcarbamoyl)-4-(4-trifluoromethoxy-benzenesulfonyl)-piperazine-1-carbonyl]-amino}-benzoic acid]: the IC50 in assay [1] and in assay [2] was > 1000 nM throughout.

Consider `Cc1n[nH]c(=O)c2sc(N3CCN(S(=O)(=O)c4ccc(OC(F)(F)F)cc4)[C@@H](C(=O)NCc4ccc(OC(F)(F)F)cc4)C3)nc12` [Example 839, (R)-4-(4-methyl-7-oxo-6,7-dihydro-thiazolo[4,5-d]pyridazin-2-yl)-1-(4-trifluoromethoxy-benzenesulfonyl)-piperazine-2-carboxylic acid 4-trifluoromethoxy-benzylamide], for which the IC50 in assay [1] and in assay [2] was < 100 nM throughout.

Take `CCC(C)(C)c1ccc(CNC(=O)[C@H]2CN(c3nc4cn[nH]c(=O)c4s3)CCN2S(=O)(=O)c2ccc(OC(F)(F)F)cc2)cc1` [Example 840, (R)-4-(7-oxo-6,7-dihydro-thiazolo[4,5-d]pyridazin-2-yl)-1-(4-trifluoromethoxy-benzenesulfonyl)-piperazine-2-carboxylic acid 4-(1,1-dimethyl-propyl)-benzylamide]: the IC50 in assay [1] and in assay [2] was < 100 nM in each case.
